Test results as given in ChEMBL document CHEMBL1201862, “PubChem BioAssay data set” (2004).
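Results reflect a 48-hour exposure of cells in 96-well plates to compound at five concentrations. The concentration for 50% growth inhibition is given as GI50.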 Activity calls are given as the source filed them. Cut-off read from the data, not from the text of the source: active = GI50 up to about 1.1 µM and inactive = higher.

Key:
Assay in all cases: NCI anticancer screen, dose series, 48 h
[1] = system: SF-295
[2] = system: SF-268
[3] = system: KM12
[4] = system: RPMI-8226
[5] = system: NCI-H522
[6] = system: CAKI-1
[7] = system: 786-0
[8] = system: CCRF-CEM
[9] = system: U-251
[10] = system: HOP-62
[11] = system: SK-MEL-2
[12] = system: OVCAR-8
[13] = system: A498
[14] = system: MOLT-4
[15] = system: HT-29
[16] = system: MDA-MB-231
[17] = system: OVCAR-4
[18] = system: NCI/ADR-RES
[19] = system: NCI-H460
[20] = system: SW-620
[21] = system: NCI-H23
[22] = system: SR
[23] = system: MCF7
[24] = system: HCT-15
[25] = system: SK-MEL-28
[26] = system: UO-31
[27] = system: SK-OV-3
[28] = system: HCC 2998
[29] = system: NCI-H226
[30] = system: EKVX
[31] = system: OVCAR-5
[32] = system: TK-10
[33] = system: SF-539
[34] = system: IGROV-1
[35] = system: ACHN
[36] = system: DU-145
[37] = system: Hs-578T
[38] = system: HOP-92
[39] = system: HL-60
[40] = system: K562
[41] = system: MDA-N
[42] = system: HCT-116
[43] = system: RXF 393
[44] = system: M14
[45] = system: OVCAR-3
[46] = system: PC-3
[47] = system: T47D
[48] = system: LOX IMVI
[49] = system: MDA-MB-435
[50] = system: SK-MEL-5
[51] = system: UACC-257
[52] = system: COLO 205
[53] = system: UACC-62
[54] = system: A549
[55] = system: SNB-75
[56] = system: SNB-19
[57] = system: SN12C
[58] = system: Malme-3M

CC1=NN(c2cccc(Cl)c2)C2(C1=Cc1ccccc1)C(Cl)C(=O)N2c1nc2ccccc2s1 (configuration not stated)
GI50 [1]: 20.2 µM (inactive) | GI50 [2]: 23.2 µM (inactive) | GI50 [3]: 17.3 µM (inactive) | GI50 [4]: 21.9 µM (inactive) | GI50 [5]: 16.8 µM (inactive) | GI50 [6]: 17.7 µM (inactive) | GI50 [7]: 17.5 µM (inactive) | GI50 [8]: 22.1 µM (inactive) | GI50 [9]: 14.1 µM (inactive) | GI50 [10]: 20.3 µM (inactive) | GI50 [11]: 17 µM (inactive) | GI50 [12]: 32.1 µM (inactive) | GI50 [13]: 18.2 µM (inactive) | GI50 [14]: 23.5 µM (inactive) | GI50 [15]: 19.8 µM (inactive) | GI50 [16]: 18.4 µM (inactive) | GI50 [17]: 19.1 µM (inactive) | GI50 [18]: 20.4 µM (inactive) | GI50 [19]: 15.2 µM (inactive) | GI50 [20]: 19.8 µM (inactive) | GI50 [21]: 14.5 µM (inactive) | GI50 [22]: 24.2 µM (inactive) | GI50 [23]: 22.2 µM (inactive) | GI50 [24]: 15.9 µM | GI50 [25]: 27.2 µM (inactive) | GI50 [26]: 16.3 µM (inactive) | GI50 [27]: 20.9 µM (inactive) | GI50 [28]: 17.3 µM (inactive) | GI50 [29]: 23.8 µM (inactive) | GI50 [30]: 33.9 µM (inactive) | GI50 [31]: 21.3 µM (inactive) | GI50 [32]: 37.8 µM (inactive) | GI50 [33]: 33.2 µM (inactive) | GI50 [34]: 15.1 µM (inactive) | GI50 [35]: 16.7 µM (inactive) | GI50 [36]: 15 µM (inactive) | GI50 [37]: 23.2 µM (inactive) | GI50 [38]: 9.14 µM (inactive) | GI50 [39]: 22.1 µM (inactive) | GI50 [40]: 19.1 µM (inactive) | GI50 [41]: 19.8 µM (inactive) | GI50 [42]: 16.7 µM (inactive) | GI50 [43]: 14 µM (inactive) | GI50 [44]: 20.4 µM (inactive) | GI50 [45]: 16.3 µM (inactive) | GI50 [46]: 16.8 µM (inactive) | GI50 [47]: 18.5 µM (inactive) | GI50 [48]: 23.7 µM (inactive) | GI50 [49]: 19.3 µM (inactive) | GI50 [50]: 13.3 µM (inactive) | GI50 [51]: 24 µM (inactive)

Clc1ccc(NCNC2Nc3ccccc3N2)cc1Cl
GI50 [52]: 35.8 µM (inactive) | GI50 [1]: 20.4 µM (inactive) | GI50 [2]: 28.4 µM (inactive) | GI50 [3]: 11.9 µM (inactive) | GI50 [4]: 26.4 µM (inactive) | GI50 [5]: 22.4 µM (inactive) | GI50 [6]: 34.6 µM (inactive) | GI50 [7]: 66.8 µM (inactive) | GI50 [8]: 25 µM (inactive) | GI50 [9]: 52.5 µM (inactive) | GI50 [10]: 72.1 µM (inactive) | GI50 [11]: 32 µM (inactive) | GI50 [12]: 13.1 µM (inactive) | GI50 [13]: > 100 µM (inactive) | GI50 [14]: 39.2 µM (inactive) | GI50 [15]: 13.7 µM (inactive) | GI50 [16]: 16.7 µM (inactive) | GI50 [18]: 83.4 µM (inactive) | GI50 [19]: 24.2 µM (inactive) | GI50 [20]: 27.6 µM (inactive) | GI50 [21]: > 100 µM (inactive) | GI50 [22]: 37.1 µM (inactive) | GI50 [23]: 0.247 µM (active) | GI50 [24]: 31.1 µM | GI50 [25]: 70.5 µM (inactive) | GI50 [26]: 27.4 µM (inactive) | GI50 [27]: 48.8 µM (inactive) | GI50 [53]: 2.26 µM (inactive) | GI50 [28]: 73.6 µM (inactive) | GI50 [29]: 27.5 µM (inactive) | GI50 [30]: 63.7 µM (inactive) | GI50 [31]: > 100 µM (inactive) | GI50 [32]: 55.6 µM (inactive) | GI50 [33]: 48.5 µM (inactive) | GI50 [35]: 26.6 µM (inactive) | GI50 [36]: > 100 µM (inactive) | GI50 [37]: > 100 µM (inactive) | GI50 [38]: 48.4 µM (inactive) | GI50 [54]: 56.9 µM (inactive) | GI50 [39]: 41.3 µM (inactive) | GI50 [40]: 12.4 µM (inactive) | GI50 [41]: 30.8 µM (inactive) | GI50 [42]: 36.7 µM (inactive) | GI50 [43]: 30.8 µM (inactive) | GI50 [55]: 19.8 µM (inactive) | GI50 [44]: 83.4 µM (inactive) | GI50 [56]: > 100 µM (inactive) | GI50 [45]: 29.3 µM (inactive) | GI50 [46]: 50.1 µM (inactive) | GI50 [47]: 12.6 µM (inactive) | GI50 [57]: 22.6 µM (inactive) | GI50 [48]: 4.63 µM (inactive) | GI50 [58]: 92.9 µM (inactive) | GI50 [49]: 20.6 µM (inactive) | GI50 [50]: 17.1 µM (inactive) | GI50 [51]: > 100 µM (inactive)
